Experimental data: PubChem BioAssay AID686998 (Broad Institute, 2013)
Values joined by “and” are separate entries in the source; they are usually repeats but may differ in a detail not shown here. Identical values can stand only once. Records with an inconclusive call do not appear. Active and inactive are the calls of the source.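 How the source made its calls: active means falling signal with fitted half-maximal potency no higher than twice the top valid tested dose; inconclusive means poor fit quality, or flat fit spanning -70% to -30%; inactive means potency over limit, rising signal, or flat fit inside 30%.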

These compounds were tested on Cryptococcus neoformans growth, Alamar Blue, 24 h (assay: Cryptococcus neoformans growth inhibition, dose response, Alamar Blue, cherry-picks (AID 686998)).
Cc1ccccc1-n1ncc2c(SCC(=O)NCc3cccs3)ncnc21 was tested, and the IC50 was 23.4 µM.
COCCN1C(=O)CCC1(C)C(=O)Nc1c(C)cccc1C (configuration not stated) showed an IC50 of 30.2 µM.
With COc1ccccc1NC(=O)c1cn(C)c(=O)c2cc(OC)c(OC)cc12 the IC50 was 50.1 µM.
For CC(C)CC#Cc1ccc2c(c1)O[C@H](CN(C)C(=O)C1CCC1)[C@@H](C)CN([C@@H](C)CO)S2(=O)=O, the IC50 was 43.5 µM.
With COC(=O)C1=C(C)N(Cc2ccc(Cl)cc2)C(=S)NC1c1cccc(F)c1 (configuration not stated) the IC50 was 20.4 µM.
For C[C@H]1CN([C@@H](C)CO)C(=O)c2cc(C#CC3(O)CCCC3)cnc2O[C@@H]1CN(C)Cc1cccnc1, the IC50 was > 70 µM (inactive).
With CCC(=O)N1[C@H](CO)[C@@H](c2ccc(-c3cccnc3)cc2)[C@@H]1CN(C)C(C)=O the IC50 was 33.6 µM.
Compound CCCCNC(=S)N/N=C/c1ccc(C#N)cc1 has an IC50 of 2.73 µM.
Work on NC(=S)N/N=C/c1ccc(-c2cc(Cl)ccc2Cl)o1 yielded an IC50 of 4.48 µM.
N#C[C@H]1[C@@H](c2ccc(C#CCC3CCCC3)cc2)[C@@H](CO)N1C(=O)c1ccccn1 gave an IC50 of 25.9 µM.
Compound S=C(NCCCc1ccccc1)Nc1ccccc1 has an IC50 of 8.77 µM.
For O=C(NC(=S)Nc1ccccc1N1CCCC1)c1ccccc1[N+](=O)[O-], the IC50 was 1.42 µM.
Work on Cc1c(C(=O)NC(=S)Nc2ccccc2N2CCCC2)cccc1[N+](=O)[O-] yielded an IC50 of 2.71 µM.
Compound CN1c2ccc(-c3ccc(F)cc3)cc2[C@@H]2[C@@H](CCN2C(=O)C2CCOCC2)[C@@H]1CO has an IC50 of 0.756 µM.
COC(=O)C1=C(C)N(Cc2ccc(Br)cc2)C(=S)NC1c1ccc(F)cc1 (configuration not stated) gave an IC50 of 5.35 µM.
Work on O=C(NC(=S)NCC1COc2ccccc2O1)c1ccccc1 (configuration not stated) yielded an IC50 of 11 µM.
COc1cccc(NC(=S)N2CCC(Cc3ccccc3)CC2)c1 gave an IC50 of 8.22 µM.
With COc1ccc(C(=O)NC(=S)Nc2ccccc2N2CCCCC2)cc1[N+](=O)[O-] the IC50 was 1.49 µM.
In the case of O=C(c1cccs1)N1CCN(c2nc3ccccc3s2)CC1, the IC50 is reported as > 70 µM (inactive).
CCOC(=O)NC(=S)Nc1ccc(C(C)(C)C)cc1 gave an IC50 of 7.22 µM.
For COC(=O)C1=C(C)N(Cc2ccc(F)cc2)C(=S)NC1c1cccc(Br)c1 (configuration not stated), the IC50 was 6.82 µM.
Cc1ccc(S(=O)(=O)N2CC[C@@H]3[C@H]2c2cc(-c4ccccc4F)ccc2N[C@@H]3CO)cc1 showed an IC50 of 6.14 µM.
CCC(C)(C(=O)Nc1ccccc1C)N(C(=O)CNC(C)=O)c1ccccc1C (configuration not stated) was tested, and the IC50 was less than 0.26 µM.
Work on CCC(=O)N1[C@H](CN(C)C(C)=O)[C@@H](c2ccc(C3=CCCCC3)cc2)[C@@H]1CO yielded an IC50 of 40.4 µM.
Work on Cc1ccc(NC(=S)Nc2ccc(Cl)c(Cl)c2)c(OC(F)F)c1 yielded an IC50 of 20.6 µM.
Work on C[C@H](CO)N1C[C@H](C)[C@H](CN(C)C(=O)NC2CCCCC2)OCCCC[C@H](C)Oc2ccc(NS(=O)(=O)c3cn(C)cn3)cc2C1=O yielded an IC50 of 47.7 µM.
In the case of O=C(C1CCOCC1)N1C[C@H]2[C@@H](c3ccccc31)[C@@H](CO)N2Cc1ccccc1Cl, the IC50 is reported as 1.88 µM.
For O=C(C[C@@H]1C=C[C@@H](NC(=O)Nc2cc(F)ccc2F)[C@H](CO)O1)NCCCN1CCOCC1, the IC50 was 68.3 µM.
In the case of COC(=O)C1=C(C)N(CC(C)C)C(=S)NC1c1ccc(Cl)cc1 (configuration not stated), the IC50 is reported as 9 µM and 18 µM.
For O=C(NC(=S)Nc1ccc(Br)cc1)C1CCC1, the IC50 was 15.8 µM.
CCCC[C@@H]1CNC(=S)N1CCc1cccc(F)c1 was tested, and the IC50 was 1.29 µM.
Work on CCc1nc(N2CCCCC2C)c2oc3ccccc3c2n1 (configuration not stated) yielded an IC50 of 17.6 µM.
Cc1ccc(C(=O)NC(=S)Nc2ccccc2N2CCCC2)cc1[N+](=O)[O-] was tested, and the IC50 was 0.463 µM.
Cc1ccc(C2CCN(C(=S)NC3CCCCC3)C2)cc1 (configuration not stated) was tested, and the IC50 was 9.63 µM.
With COC(=O)C1=C(C)N(Cc2ccc(Br)cc2)C(=S)NC1c1cccc(Br)c1 (configuration not stated) the IC50 was 6.53 µM.
C[C@H](CO)N1C[C@H](C)[C@@H](CN(C)S(=O)(=O)c2cn(C)cn2)Oc2c(NC(=O)Nc3ccccc3)cccc2C1=O was tested, and the IC50 was > 70 µM (inactive).
COc1ccc(CN(C)C[C@@H]2Oc3ccc(NS(C)(=O)=O)cc3CC(=O)N([C@H](C)CO)C[C@H]2C)cc1 gave an IC50 of 48.6 µM.
For COCC#Cc1cnc2c(c1)C(=O)N([C@@H](C)CO)C[C@H](C)[C@H](CN(C)C(=O)Nc1ccc(OC)cc1)O2, the IC50 was > 70 µM (inactive).
Compound CCOc1ccc(CNC(=S)NCc2ccc(OCC)cc2)cc1 has an IC50 of 8.87 µM.
In the case of O=C(NC(=S)Nc1cc(Cl)ccc1N1CCOCC1)c1ccccc1[N+](=O)[O-], the IC50 is reported as 7.86 µM.
For Cc1ccc(/C=C2\SC(=S)N(NS(=O)(=O)c3ccc(C)cc3)C2=O)cc1, the IC50 was 12.7 µM.
With Cc1ccccc1-n1ncc2c(SCC(=O)N3c4ccccc4CC3C)ncnc21 (configuration not stated) the IC50 was 0.28 µM.
CC(C)NC(=O)N(C)C[C@H]1Oc2c(NS(=O)(=O)c3ccc(Cl)cc3)cccc2C(=O)N([C@@H](C)CO)C[C@@H]1C showed an IC50 of 41.8 µM.
For C[C@@H]1CN([C@H](C)CO)C(=O)Cc2cc(NC(=O)NC3CCCCC3)ccc2O[C@@H]1CN(C)Cc1ccccc1, the IC50 was > 70 µM (inactive).
Compound S=C(NCCc1cccc(Cl)c1)NC1CCCCC1 has an IC50 of 6.69 µM.
CC(=O)N[C@H]1CC[C@H](CCNC(=O)C2CCC2)O[C@@H]1CO was tested, and the IC50 was > 70 µM (inactive).
For COc1ccc(CN(C)C[C@@H]2OCCCC[C@@H](C)Oc3ccc(NC(=O)c4ccccc4)cc3C(=O)N([C@H](C)CO)C[C@@H]2C)cc1, the IC50 was > 70 µM (inactive).
In the case of COC(=O)C1=C(C)N(Cc2ccc(Cl)cc2)C(=S)NC1c1ccc(F)cc1 (configuration not stated), the IC50 is reported as 14.8 µM and 20.9 µM.
For COC(=O)C1=C(C)N(Cc2ccccc2)C(=S)NC1c1cccc(Br)c1 (configuration not stated), the IC50 was 6.55 µM and 8.35 µM.
CN1c2ccc(-c3ccc(F)cc3)cc2[C@H]2[C@H](CCN2S(=O)(=O)c2cccc(F)c2)[C@H]1CO gave an IC50 of 6.07 µM.
Compound Fc1cccc(CCN2C(=S)NC[C@@H]2Cc2ccccc2)c1 has an IC50 of 7.13 µM.
Compound CC[C@H](C)[C@@H]1NC(=O)CNC(=O)c2csc(n2)[C@H](C(C)(C)O)OC(=O)C(C)(C)[C@H](CCCC(C)(Cl)Cl)OC(=O)c2csc1n2 has an IC50 of 2.16 µM.
COC(=O)C1=C(C)N(Cc2ccc(F)cc2)C(=S)NC1c1cccc(Cl)c1 (configuration not stated) was tested, and the IC50 was 10.6 µM.
For CC(=O)c1cccc(NC(=S)NC2CCCCCCC2)c1, the IC50 was 10.7 µM.
Work on C[C@H](CO)N1C[C@H](C)[C@H](CN(C)CC2CCCCC2)Oc2c(NS(C)(=O)=O)cccc2C1=O yielded an IC50 of 56.4 µM.
In the case of COc1ccc(NC(=O)CN2CCN(S(=O)(=O)c3ccc(C(C)C)cc3)CC2)cc1OC, the IC50 is reported as 43.7 µM.
With O=C(C[C@H]1CC[C@H]2[C@@H](COC[C@H](O)CN2Cc2cc(F)cc(F)c2)O1)Nc1nccs1 the IC50 was > 70 µM (inactive).
C[C@H](CO)N1C[C@H](C)[C@@H](CN(C)Cc2ccc(Oc3ccccc3)cc2)Oc2ccc(NC(=O)Nc3ccc4c(c3)OCO4)cc2C1=O was tested, and the IC50 was > 70 µM (inactive).
Work on C[C@@H]1CN([C@H](C)CO)C(=O)Cc2cc(NC(=O)CCCCCC(=O)Nc3ccccc3N)ccc2O[C@H]1CN(C)C(=O)Nc1ccccc1 yielded an IC50 of 4.69 µM.
With O=C(NC(=S)Nc1ccccc1N1CCOCC1)c1ccccc1F the IC50 was 20.9 µM.
With Cc1ccc(S(=O)(=O)N(C)C[C@H]2Oc3c(cccc3N(C)C)C(=O)N([C@@H](C)CO)C[C@H]2C)cc1 the IC50 was > 70 µM (inactive).
With Cc1ccccc1NC(=O)C(NC1CCCCC1)C(C)C (configuration not stated) the IC50 was 1.46 µM.
For CCC(=O)Nc1ccc2c(c1)C(=O)N(C)C[C@H](OC)[C@@H](C)CN[C@H](C)CO2, the IC50 was > 70 µM (inactive).
In the case of Cc1ccc(C(=O)Nc2ccc3ncccc3c2)cc1, the IC50 is reported as 24 µM.
Compound C/C=C/c1ccc([C@@H]2[C@@H](C#N)N(S(=O)(=O)c3cccc(F)c3)[C@@H]2CO)cc1 has an IC50 of 33.6 µM.
In the case of C[C@@H]1CN([C@@H](C)CO)S(=O)(=O)c2ccc(C3=CCCC3)cc2O[C@@H]1CN(C)Cc1ccccc1F, the IC50 is reported as 31.3 µM.
S=C(NCc1ccccc1)NCC1COc2ccccc2O1 (configuration not stated) showed an IC50 of 21 µM.
Fc1ccccc1CNC(=S)NCc1ccc(Cl)cc1 gave an IC50 of 12.8 µM.
CNC[C@@H]1OCCCC[C@@H](C)Oc2ccc(NC(=O)NC(C)C)cc2C(=O)N([C@@H](C)CO)C[C@H]1C was tested, and the IC50 was > 70 µM (inactive).
With COc1cc(NC(=O)CN2CCN(S(=O)(=O)c3ccc(C(C)C)cc3)CC2)cc(OC)c1 the IC50 was 59.4 µM.
Cc1cc(C)c2nc(N3CCN(C(=O)c4cccs4)CC3)sc2c1 showed an IC50 of 21.9 µM.
Compound Cc1ccc(C2CC(c3cccs3)=NN2C(=O)c2ccc(Br)o2)cc1 (configuration not stated) has an IC50 of 0.375 µM.
With CCC(=O)N(C)C[C@@H]1Oc2cc(C#CC(C)(C)O)ccc2S(=O)(=O)N([C@@H](C)CO)C[C@H]1C the IC50 was 28.7 µM.
Work on C[C@H](CO)N1C[C@H](C)[C@H](CN(C)Cc2ccc(Cl)c(Cl)c2)Oc2c(NC(=O)Nc3ccccc3)cccc2C1=O yielded an IC50 of 10.8 µM.
With C[C@@H]1CN([C@H](C)CO)C(=O)c2ccccc2-c2ccccc2CO[C@H]1CN(C)S(=O)(=O)c1cccc(C#N)c1 the IC50 was 66.7 µM.
COc1cc(CO)cc(I)c1O[C@H]1C=C(C(=O)NCCO)C[C@@H](N(CC2CCCCC2)C(=O)c2cc3ccccc3oc2=O)[C@@H]1O showed an IC50 of 0.479 µM.
For O=C(CN(c1ccccc1)S(=O)(=O)c1ccccc1)Nc1ccc(F)cc1, the IC50 was 40.8 µM.
For CC(C)CC#Cc1cnc2c(c1)C(=O)N([C@@H](C)CO)C[C@H](C)[C@H](CN(C)C(=O)c1ccc3c(c1)OCO3)O2, the IC50 was 5.12 µM.
With Cc1noc(C)c1NC(=O)N(C)C[C@H]1OCCCC[C@@H](C)Oc2ccc(NC(=O)NC(C)C)cc2C(=O)N([C@H](C)CO)C[C@H]1C the IC50 was > 70 µM (inactive).
In the case of COC(=O)C1=C(C)N(Cc2ccccc2)C(=O)N[C@H]1c1cccc(F)c1, the IC50 is reported as 53.8 µM.
Compound C[C@H](NC(=O)C[C@@H]1C=C[C@H](NC(=O)CN2CCOCC2)[C@H](CO)O1)c1ccccc1 has an IC50 of 44.8 µM.
Work on COc1cccc(S(=O)(=O)Nc2ccc3c(c2)[C@H]2C[C@@H](CC(=O)NC4CCCCC4)O[C@@H](CO)[C@H]2O3)c1 yielded an IC50 of 6.96 µM.
CCc1ccc(C(C)NC(=S)NCc2ccc(F)cc2)cc1 (configuration not stated) gave an IC50 of 7.31 µM.
For COCC(=O)Nc1ccc2c(c1)C(=O)N(C)C[C@H](OC)[C@@H](C)CN(C(=O)c1ccccc1)[C@@H](C)CO2, the IC50 was > 70 µM (inactive).
C[C@@H]1CN([C@H](C)CO)S(=O)(=O)c2ccc(-c3ccccc3)cc2O[C@H]1CN(C)C(=O)C1CCCCC1 was tested, and the IC50 was 65.5 µM.
Work on CC(=O)OC1(C)CC(C)C(=O)C(C(O)CC2CC(=O)NC(=O)C2)C1 (configuration not stated) yielded an IC50 of less than 0.26 µM.
With COC(=O)C1=C(C)N(Cc2ccc(Br)cc2)C(=S)NC1c1ccc(OC)cc1 (configuration not stated) the IC50 was 26 µM and 32.8 µM.
For CNC[C@H]1Oc2cc(Br)ccc2S(=O)(=O)N([C@H](C)CO)C[C@H]1C, the IC50 was > 70 µM (inactive).
CN1C[C@@H]2C(c3ccc(C(F)(F)F)cc3)C3(c4ccccc4)CC2(C3)[C@H]1c1ccccc1 (some centres not stated) was tested, and the IC50 was 11.2 µM.
For Cc1ccccc1S(=O)(=O)N[C@@H]1CC[C@H](CCNS(=O)(=O)c2cccc(F)c2)O[C@H]1CO, the IC50 was > 70 µM (inactive).
For C[C@@H]1CN([C@H](C)CO)C(=O)c2cc(NS(=O)(=O)c3cn(C)cn3)ccc2O[C@@H](C)CCCCO[C@H]1CN(C)C, the IC50 was 62.9 µM.
For CCC(C)c1ccc(NC(=S)N2CCN(c3ccccn3)CC2)cc1 (configuration not stated), the IC50 was 17.5 µM.
